Laboratory results taken from the supplement of paper PMC11451515.

Test system: NOMO1
Experiment: cell viability relative to DMSO control; higher = less cytotoxic
Settings: 48 h
Summary of the method: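 Viability, reported as a per-plate percentage of DMSO wells with cell-free wells as background, came from CellTiter-Glo One luminescence. Reading took place after 48 h at 37°C. Before that, NOMO1 or SEM (500 cells/well) or P12-Ichikawa (1000 cells/well) leukemia cells, adapted for at least four passages in each medium, were seeded in 1536-well plates (5 μl) and pin-dosed with library compounds in DMSO, 47 μM to 0.79 nM over 11 threefold points.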

[1] = HPLM + 10% dialyzed FBS, 0.000781 µM
[2] = HPLM + 10% dialyzed FBS, 0.00234 µM
[3] = HPLM + 10% dialyzed FBS, 0.00702 µM
[4] = HPLM + 10% dialyzed FBS, 0.0211 µM
[5] = HPLM + 10% dialyzed FBS, 0.0632 µM
[6] = HPLM + 10% dialyzed FBS, 0.19 µM
[7] = HPLM + 10% dialyzed FBS, 0.569 µM
[8] = HPLM + 10% dialyzed FBS, 1.71 µM
[9] = HPLM + 10% dialyzed FBS, 5.12 µM
[10] = HPLM + 10% dialyzed FBS, 15.4 µM
[11] = HPLM + 10% dialyzed FBS, 46.1 µM
[12] = RPMI 5 mM glucose + 10% FBS, 0.000781 µM
[13] = RPMI 5 mM glucose + 10% FBS, 0.00234 µM
[14] = RPMI 5 mM glucose + 10% FBS, 0.00702 µM
[15] = RPMI 5 mM glucose + 10% FBS, 0.0211 µM
[16] = RPMI 5 mM glucose + 10% FBS, 0.0632 µM
[17] = RPMI 5 mM glucose + 10% FBS, 0.19 µM
[18] = RPMI 5 mM glucose + 10% FBS, 0.569 µM
[19] = RPMI 5 mM glucose + 10% FBS, 1.71 µM
[20] = RPMI 5 mM glucose + 10% FBS, 5.12 µM
[21] = RPMI 5 mM glucose + 10% FBS, 15.4 µM
[22] = RPMI 5 mM glucose + 10% FBS, 46.1 µM
[23] = RPMI 5 mM glucose + 10% dialyzed FBS, 0.000781 µM
[24] = RPMI 5 mM glucose + 10% dialyzed FBS, 0.00234 µM
[25] = RPMI 5 mM glucose + 10% dialyzed FBS, 0.00702 µM
[26] = RPMI 5 mM glucose + 10% dialyzed FBS, 0.0211 µM
[27] = RPMI 5 mM glucose + 10% dialyzed FBS, 0.0632 µM
[28] = RPMI 5 mM glucose + 10% dialyzed FBS, 0.19 µM
[29] = RPMI 5 mM glucose + 10% dialyzed FBS, 0.569 µM
[30] = RPMI 5 mM glucose + 10% dialyzed FBS, 1.71 µM
[31] = RPMI 5 mM glucose + 10% dialyzed FBS, 5.12 µM
[32] = RPMI 5 mM glucose + 10% dialyzed FBS, 15.4 µM
[33] = RPMI 5 mM glucose + 10% dialyzed FBS, 46.1 µM

Row | Compound | cell viability [1] | cell viability [2] | cell viability [3] | cell viability [4] | cell viability [5] | cell viability [6] | cell viability [7] | cell viability [8] | cell viability [9] | cell viability [10] | cell viability [11] | cell viability [12] | cell viability [13] | cell viability [14] | cell viability [15] | cell viability [16] | cell viability [17] | cell viability [18] | cell viability [19] | cell viability [20] | cell viability [21] | cell viability [22] | cell viability [23] | cell viability [24] | cell viability [25] | cell viability [26] | cell viability [27] | cell viability [28] | cell viability [29] | cell viability [30] | cell viability [31] | cell viability [32] | cell viability [33]
1 | NC(CO)(CO)CCc1ccc(Sc2cccc(OCc3ccccc3)c2)cc1Cl | 108% | 107% | 118% | 118% | 124% | 129% | 111% | 121% | 63.1% | 38.6% | 8.35% | 104% | 103% | 116% | 122% | 107% | 107% | 117% | 115% | 120% | 40.1% | 5.44% | 93.5% | 103% | 99.1% | 107% | 114% | 109% | 105% | 115% | 113% | 104% | 5.71%
2 | C1CCC(C(CC2CCCCN2)C2CCCCC2)CC1 (stereo not given) | 121% | 111% | 127% | 111% | 140% | 127% | 132% | 150% | 131% | 118% | 5.65% | 108% | 116% | 133% | 144% | 116% | 122% | 132% | 115% | 131% | 121% | 6.9% | 110% | 108% | 124% | 107% | 114% | 130% | 114% | 131% | 116% | 98.1% | 6.09%
3 | CC1(C)CCC(=C(CN2CCN(CC2)C3=CC=C(C=C3)C(=O)N[S+]([O-])(=O)C4=CC(=C(N[C@H](CCN5CCOCC5)CSC6=CC=CC=C6)C=C4)[S+]([O-])(=O)C(F)(F)F)\C1)/C7=CC=C(Cl)C=C7 | 124% | 132% | 123% | 128% | 116% | 112% | 96.7% | 57.1% | 49.2% | 39.2% | 43.2% | – | – | – | – | – | – | – | – | – | – | – | 116% | 125% | 118% | 117% | 90.1% | 78.9% | 61.7% | 23.9% | 24.7% | 29.9% | 22.5%
4 | COc1cc(Nc2ncc(F)c(Nc3ccc4c(n3)NC(=O)C(C)(C)O4)n2)cc(OC)c1OC | 93.8% | 105% | 119% | 127% | 139% | 138% | 120% | 106% | 53.3% | 11.4% | 6.39% | 104% | 111% | 118% | 118% | 125% | 126% | 128% | 106% | 73.9% | 13.4% | 7.45% | 109% | 99.7% | 107% | 106% | 105% | 116% | 128% | 103% | 82.7% | 23.9% | 6.81%
5 | CCN(CC)CCCCNc1nc2cc(Cl)c(Cl)cc2nc1-c1ccc(-c2cccs2)s1 | 101% | 124% | 123% | 128% | 111% | 137% | 137% | 121% | 138% | 98.4% | 3.87% | 97% | 103% | 111% | 115% | 123% | 119% | 123% | 102% | 117% | 113% | 5.9% | 98.3% | 112% | 108% | 112% | 110% | 119% | 114% | 108% | 112% | 108% | 5.42%
6 | O=C(Nc1cccc(Nc2ncc(Br)c(NCCc3cnc[nH]3)n2)c1)N1CCCC1 | – | – | – | – | – | – | – | – | – | – | – | 113% | 117% | 122% | 112% | 112% | 110% | 68.7% | 71.1% | 62.8% | 12.4% | 1.13% | 103% | 106% | 107% | 107% | 113% | 95.2% | 92.2% | 59.6% | 65.2% | 37.1% | 0.0873%
7 | CCCCNc1cc(C(=O)O)cc([S+](N)(=O)[O-])c1Oc1ccccc1 | – | – | – | – | – | – | – | – | – | – | – | 118% | 113% | 128% | 127% | 129% | 115% | 124% | 120% | 136% | 146% | 135% | – | – | – | – | – | – | – | – | – | – | –
8 | OC[C@H]1O[C@H]([C@@H](F)[C@@H]1O)N2\C=C/C(=O)NC2=O | 99.1% | 106% | 106% | 97.2% | 116% | 108% | 108% | 107% | 109% | 97.9% | 90.2% | 85.9% | 40.6% | 97% | 92.9% | 99.7% | 104% | 98.2% | 100% | 84.8% | 94.3% | 82.8% | 105% | 74.5% | 97% | 102% | 102% | 99.4% | 105% | 99.5% | 84% | 104% | 95.2%
